Among the data in patent US10428083B2, “Heterocyclylmethyl-thienouracile as antagonists of the adenosine-A2B-receptor” (BAYER PHARMA AKTIENGESELLSCHAFT, priority 2015, dated 2019) are IC50 values, retold here.

For the experiment, the target named is human adenosine A2b receptor (Homo sapiens (Human), UniProt P29275). Kind of experiment: Cellular in vitro reporter gene test for A2b receptor activity (CHO-K1, CRE-luciferase, NECA stimulation). Format: cell-based. Particulars: recombinant CHO-K1 cell line, CRE-luciferase reporter, antagonism of EC50 concentration of NECA; in some cases means of several determinations, rounded to two significant figures; read-out: A2b receptor IC50. The method, boiled down: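 CHO-K1 cells with CRE-driven luciferase; antagonists co-incubated with NECA at its EC50, determined in a pre-experiment on each test day. Luciferase read by luminescence 3 h after NECA addition.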
For orientation: In a reporter assay the amount or activity of a reporter protein is the signal.

The structures appear in SMILES notation.

Sequence of human adenosine A2b receptor (P29275 whole entry): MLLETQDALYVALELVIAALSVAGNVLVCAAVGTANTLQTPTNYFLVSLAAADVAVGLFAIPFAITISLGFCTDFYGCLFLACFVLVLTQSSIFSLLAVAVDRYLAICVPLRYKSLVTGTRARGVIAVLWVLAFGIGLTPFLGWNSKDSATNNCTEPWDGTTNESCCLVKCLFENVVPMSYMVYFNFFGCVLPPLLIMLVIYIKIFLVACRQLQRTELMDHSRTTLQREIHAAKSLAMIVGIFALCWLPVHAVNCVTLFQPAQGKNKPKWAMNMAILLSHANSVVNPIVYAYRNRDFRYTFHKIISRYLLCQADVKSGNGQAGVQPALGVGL

As for `COCCn1c(=O)c2c(C)c(CN3CCNC3=NC#N)sc2n(CC2CCO2)c1=O` (single isomer, unassigned) [Example 365, [1-{[3-Methoxyethyl-5-methyl-1-(oxetan-2-ylmethyl)-2,4-dioxo-1,2,3,4-tetrahydrothieno[2,3-d]pyrimidin-6-yl]methyl}imidazolidin-2-ylidene]cyanamide], the IC50 is 0.11 µM.
The value for `COCCn1c(=O)c2c(C)c(CN3CCNC3=NC#N)sc2n(CC2CCO2)c1=O` (single isomer, unassigned) [Example 366, [1-{[3-Methoxyethyl-5-methyl-1-(oxetan-2-ylmethyl)-2,4-dioxo-1,2,3,4-tetrahydrothieno[2,3-d]pyrimidin-6-yl]methyl}imidazolidin-2-ylidene]cyanamide] was 0.04 µM.
For the compound `COCCn1c(=O)c2c(C)c(CN3CCNC3=NC#N)sc2n(CC2CCCO2)c1=O` (single isomer, unassigned) [Example 368, [1-{[3-(2-Methoxyethyl)-5-methyl-2,4-dioxo-1-(tetrahydrofuran-2-ylmethyl)-1,2,3,4-tetrahydrothieno[2,3-d]pyrimidin-6-yl]methyl}imidazolidin-2-ylidene]cyanamide], the IC50 is 0.082 µM.
For `COCCn1c(=O)c2c(C)c(CN3CCNC3=NC#N)sc2n(CC2CCCO2)c1=O` (single isomer, unassigned) [Example 369, [1-{[3-(2-Methoxyethyl)-5-methyl-2,4-dioxo-1-(tetrahydrofuran-2-ylmethyl)-1,2,3,4-tetrahydrothieno[2,3-d]pyrimidin-6-yl]methyl}imidazolidin-2-ylidene]cyanamide], the IC50 was found to be 0.033 µM.
As for `CCn1c(=O)c2c(C)c(CN3CCNC3=NC(=O)OC)sc2n(CC2CCO2)c1=O` (single isomer, unassigned) [Example 372, Methyl [1-{[3-ethyl-5-methyl-1-(oxetan-2-ylmethyl)-2,4-dioxo-1,2,3,4-tetrahydrothieno[2,3-d]pyrimidin-6-yl]methyl}imidazolidin-2-ylidene]carbamate], the IC50 was 0.027 µM.
The result for `CCn1c(=O)c2c(C)c(CN3CCNC3=NC(=O)OC)sc2n(CC2CCO2)c1=O` (single isomer, unassigned) [Example 373, Methyl [1-{[3-ethyl-5-methyl-1-(oxetan-2-ylmethyl)-2,4-dioxo-1,2,3,4-tetrahydrothieno[2,3-d]pyrimidin-6-yl]methyl}imidazolidin-2-ylidene]carbamate] reads 0.0059 µM; that for `CCn1c(=O)c2c(C)c(CN3CCNC3=NC(=O)OC)sc2n(CC2CCCO2)c1=O` (single isomer, unassigned) [Example 375, Methyl [1-{[3-ethyl-5-methyl-2,4-dioxo-1-(tetrahydrofuran-2-ylmethyl)-1,2,3,4-tetrahydrothieno[2,3-d]pyrimidin-6-yl]methyl}imidazolidin-2-ylidene]carbamate], 0.0063 µM.
The value for `CCn1c(=O)c2c(C)c(CN3CCNC3=NC(=O)OC)sc2n(CC2CCCO2)c1=O` (single isomer, unassigned) [Example 376, Methyl [1-{[3-ethyl-5-methyl-2,4-dioxo-1-(tetrahydrofuran-2-ylmethyl)-1,2,3,4-tetrahydrothieno[2,3-d]pyrimidin-6-yl]methyl}imidazolidin-2-ylidene]carbamate] was 0.0079 µM; that for `COCCn1c(=O)c2c(C)c(CN3CCNC3=NC(=O)OC)sc2n(CC2CCO2)c1=O` (single isomer, unassigned) [Example 388, Methyl [1-{[3-(2-methoxyethyl)-5-methyl-1-(oxetan-2-ylmethyl)-2,4-dioxo-1,2,3,4-tetrahydrothieno[2,3-d]pyrimidin-6-yl]methyl}imidazolidin-2-ylidene]carbamate] was 0.033 µM; that for `COCCn1c(=O)c2c(C)c(CN3CCNC3=NC(=O)OC)sc2n(CC2CCO2)c1=O` (single isomer, unassigned) [Example 389, Methyl [1-{[3-(2-methoxyethyl)-5-methyl-1-(oxetan-2-ylmethyl)-2,4-dioxo-1,2,3,4-tetrahydrothieno[2,3-d]pyrimidin-6-yl]methyl}imidazolidin-2-ylidene]carbamate] was 0.087 µM.
The result for `COCCn1c(=O)c2c(C)c(CN3CCNC3=NC(=O)OC)sc2n(CC2CCCO2)c1=O` (single isomer, unassigned) [Example 391, Methyl [1-f{[3-(2-methoxyethyl)-5-methyl-2,4-dioxo-1-(tetrahydrofuran-2-ylmethyl)-1,2,3,4-tetrahydrothieno[2,3-d]pyrimidin-6-yl]methyl}imidazolidin-2-ylidene]carbamate] reads 0.034 µM; that for `COCCn1c(=O)c2c(C)c(CN3CCNC3=NC(=O)OC)sc2n(CC2CCCO2)c1=O` (single isomer, unassigned) [Example 392, Methyl [1-f{[3-(2-methoxyethyl)-5-methyl-2,4-dioxo-1-(tetrahydrofuran-2-ylmethyl)-1,2,3,4-tetrahydrothieno[2,3-d]pyrimidin-6-yl]methyl}imidazolidin-2-ylidene]carbamate], 0.056 µM.
With `Cc1c(CN2CCNC(=O)C2=O)sc2c1c(=O)n(C(C)C)c(=O)n2CC1CCO1` (single isomer, unassigned) [Example 398, 6-[(2,3-Dioxopiperazin-1-yl)methyl]-3-isopropyl-5-methyl-1-(oxetan-2-ylmethyl)thieno[2,3-d]pyrimidine-2,4(1H,3H)-dione], the IC50 came out at 0.24 µM.
With `Cc1c(CN2CCNC(=O)C2=O)sc2c1c(=O)n(C(C)C)c(=O)n2CC1CCO1` (single isomer, unassigned) [Example 399, 6-[(2,3-Dioxopiperazin-1-yl)methyl]-3-isopropyl-5-methyl-1-(oxetan-2-ylmethyl)thieno[2,3-d]pyrimidine-2,4(1H,3H)-dione], the IC50 was found to be 0.026 µM.
Consider `COCCn1c(=O)c2c(C)c(CN3CCNC(=O)C3=O)sc2n(CC2CCO2)c1=O` (single isomer, unassigned) [Example 401, 6-[(2,3-Dioxopiperazin-1-yl)methyl]-3-(2-methoxyethyl)-5-methyl-1-(oxetan-2-ylmethyl)thieno[2,3-d]pyrimidine-2,4(1H,3H)-dione], for which the concentration for half-maximal inhibition (IC50) turned out to be 0.66 µM.
The result for `COCCn1c(=O)c2c(C)c(CN3CCNC(=O)C3=O)sc2n(CC2CCO2)c1=O` (single isomer, unassigned) [Example 402, 6-[(2,3-Dioxopiperazin-1-yl)methyl]-3-(2-methoxyethyl)-5-methyl-1-(oxetan-2-ylmethyl)thieno[2,3-d]pyrimidine-2,4(1H,3H)-dione] reads 0.1 µM; that for `Cc1c(CN2CCNC2=O)sc2c1c(=O)n(CC(C)(C)C)c(=O)n2CC1CCCO1` (single isomer, unassigned) [Example 407, 3-(2,2-Dimethylpropyl)-5-methyl-6-[(2-oxoimidazolidin-1-yl)methyl]-1-(tetrahydrofuran-2-ylmethyl)thieno[2,3-d]pyrimidine-2,4(1H,3H)-dione], 0.032 µM; that for `Cc1c(CN2CCNC2=O)sc2c1c(=O)n(CC(C)(C)C)c(=O)n2CC1CCCO1` (single isomer, unassigned) [Example 408, 3-(2,2-Dimethylpropyl)-5-methyl-6-[(2-oxoimidazolidin-1-yl)methyl]-1-(tetrahydrofuran-2-ylmethyl)thieno[2,3-d]pyrimidine-2,4(1H,3H)-dione], 0.012 µM.
In the case of `COC(C)Cn1c(=O)c2c(C)c(CN3CCNC3=O)sc2n(CCC(F)(F)F)c1=O` (single isomer, unassigned) [Example 413, 3-(2-Methoxypropyl)-5-methyl-6-[(2-oxoimidazolidin-1-yl)methyl]-1-(3,3,3-trifluoropropyl)thieno[2,3-d]pyrimidine-2,4(1H,3H)-dione], the IC50 came out at 0.0046 µM.
The value for `COC(C)Cn1c(=O)c2c(C)c(CN3CCNC3=O)sc2n(CCC(F)(F)F)c1=O` (single isomer, unassigned) [Example 414, 3-(2-Methoxypropyl)-5-methyl-6-[(2-oxoimidazolidin-1-yl)methyl]-1-(3,3,3-trifluoropropyl)thieno[2,3-d]pyrimidine-2,4(1H,3H)-dione] was 0.011 µM; that for `CCn1c(=O)c2c(C)c(Cn3nc[nH]c3=O)sc2n(CC2CCCO2)c1=O` (single isomer, unassigned) [Example 420, 3-Ethyl-5-methyl-6-[(5-oxo-4,5-dihydro-1H-1,2,4-triazol-1-yl)methyl]-1-(tetrahydrofuran-2-ylmethyl)thieno[2,3-d]pyrimidine-2,4(1H,3H)-dione] was 0.05 µM.
The result for `CCn1c(=O)c2c(C)c(Cn3nc[nH]c3=O)sc2n(CC2CCCO2)c1=O` (single isomer, unassigned) [Example 421, 3-Ethyl-5-methyl-6-[(5-oxo-4,5-dihydro-1H-1,2,4-triazol-1-yl)methyl]-1-(tetrahydrofuran-2-ylmethyl)thieno[2,3-d]pyrimidine-2,4(1H,3H)-dione] reads 0.071 µM.
The result for `Cc1c(Cn2nc[nH]c2=O)sc2c1c(=O)n(C(C)C)c(=O)n2CC1CCCO1` (single isomer, unassigned) [Example 425, 3-Isopropyl-5-methyl-6-[(5-oxo-4,5-dihydro-1H-1,2,4-triazol-1-yl)methyl]-1-(tetrahydrofuran-2-ylmethyl)thieno[2,3-d]pyrimidine-2,4(1H,3H)-dione] reads 0.042 µM.
Take `Cc1c(Cn2nc[nH]c2=O)sc2c1c(=O)n(C(C)C)c(=O)n2CC1CCCO1` (single isomer, unassigned) [Example 426, 3-Isopropyl-5-methyl-6-[(5-oxo-4,5-dihydro-1H-1,2,4-triazol-1-yl)methyl]-1-(tetrahydrofuran-2-ylmethyl)thieno[2,3-d]pyrimidine-2,4(1H,3H)-dione]: the IC50 is 0.27 µM.
The value for `Cc1c(Cn2nc[nH]c2=O)sc2c1c(=O)n(CC(C)(C)C)c(=O)n2CC1CCCO1` (single isomer, unassigned) [Example 430, 3-(2,2-Dimethylpropyl)-5-methyl-6-[(5-oxo-4,5-dihydro-1H-1,2,4-triazol-1-yl)methyl]-1-(tetrahydrofuran-2-ylmethyl)thieno[2,3-d]pyrimidine-2,4(1H,3H)-dione] was 0.28 µM.

Usually IC50 stands for the midpoint of a concentration-inhibition curve.
